Data set [1] deals with T1, Epidermal Growth Factor Receptor (EGFR) Tyrosine Kinase (Homo sapiens, UniProt P00533).
T1 construct: purchased PanVera, Madison Wis; P2628
The data set is described as follows: EGFR kinase multiplex FP/TR-RET library screen and follow-up titration. Format: biochemical. Conditions: two-fold dilution series.

Data set [2] in a line: Precipitation of poorly correlating compounds in the EGFR kinase assay. The format is physicochemical. The settings on record: EGFR kinase assay conditions.
Data set [3] addresses PTK labeled tracer F-ADE(pY)LIPQQS. The data set is described as follows: FP direct binding, antibody titrated (10 nM to 9.8 pM) against 1 nM tracer.

T1 sequence (P00533 25-1210, species assumed): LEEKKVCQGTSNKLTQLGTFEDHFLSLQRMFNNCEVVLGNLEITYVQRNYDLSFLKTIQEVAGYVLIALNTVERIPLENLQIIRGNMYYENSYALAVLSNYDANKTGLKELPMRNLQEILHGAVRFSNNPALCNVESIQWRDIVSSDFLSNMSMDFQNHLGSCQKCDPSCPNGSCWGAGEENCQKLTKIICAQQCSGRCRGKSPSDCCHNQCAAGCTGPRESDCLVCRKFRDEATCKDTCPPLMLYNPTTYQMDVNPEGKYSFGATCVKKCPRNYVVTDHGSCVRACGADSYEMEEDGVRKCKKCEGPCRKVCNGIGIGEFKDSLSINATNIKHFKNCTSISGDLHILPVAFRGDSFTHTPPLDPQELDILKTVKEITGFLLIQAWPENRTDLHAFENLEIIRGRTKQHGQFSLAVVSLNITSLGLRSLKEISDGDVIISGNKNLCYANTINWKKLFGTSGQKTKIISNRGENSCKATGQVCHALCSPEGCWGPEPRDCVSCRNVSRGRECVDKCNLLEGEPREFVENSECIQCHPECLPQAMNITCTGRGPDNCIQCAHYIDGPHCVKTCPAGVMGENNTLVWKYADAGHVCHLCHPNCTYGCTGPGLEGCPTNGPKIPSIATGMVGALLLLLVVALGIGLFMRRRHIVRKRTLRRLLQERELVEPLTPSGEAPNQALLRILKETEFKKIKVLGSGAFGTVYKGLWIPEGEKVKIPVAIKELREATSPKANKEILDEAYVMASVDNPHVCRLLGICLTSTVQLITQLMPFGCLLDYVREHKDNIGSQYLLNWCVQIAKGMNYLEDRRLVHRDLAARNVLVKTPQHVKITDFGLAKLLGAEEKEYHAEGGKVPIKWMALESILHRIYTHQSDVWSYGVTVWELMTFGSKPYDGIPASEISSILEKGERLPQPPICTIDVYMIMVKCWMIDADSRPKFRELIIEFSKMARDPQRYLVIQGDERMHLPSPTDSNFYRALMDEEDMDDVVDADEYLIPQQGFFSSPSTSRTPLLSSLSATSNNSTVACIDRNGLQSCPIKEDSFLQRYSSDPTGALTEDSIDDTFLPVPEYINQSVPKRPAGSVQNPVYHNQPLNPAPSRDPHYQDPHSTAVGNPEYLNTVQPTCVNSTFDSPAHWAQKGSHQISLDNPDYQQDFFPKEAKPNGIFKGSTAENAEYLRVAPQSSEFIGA

Consider `NC(=O)c1cc(N2CC2)c([N+](=O)[O-])cc1[N+](=O)[O-]` [CB-1954, CB 1954], for which the inhibitor on re-assay entry in data set [1] is “neither was seen to be an inhibitor”.

`CC(C)[C@@]1(NC(=O)[C@@H]2C=C3c4cccc5[nH]cc(c45)C[C@H]3N(C)C2)O[C@@]2(O)[C@@H]3CCCN3C(=O)[C@H](Cc3ccccc3)N2C1=O` [Ergocristine]: the precipitation in assay entry in data set [2] is given as “precipitate”.

`O=C1Nc2ccc(I)cc2/C1=C/c1cc(Br)c(O)c(Br)c1` [GW5074]: the precipitation in assay result in data set [2] is on record as “precipitate”. Take `Oc1ccccc1O` [Pyrocatechol]: in data set [1], the inhibitor on re-assay entry is “neither was seen to be an inhibitor”. The EC50 is the concentration at which the effect is half-maximal. A higher EC50 goes with lower potency in that assay. With “Tb-chelate labeled PY72 (anti-phosphotyrosine) IgG antibody”, the EC50 in data set [3] was found to be 1 nM.

(Values after patent US20050064485A1, “Multiplex binding and activity assays” (priority 2003, published 2005).)
